Reference: patent US20150136603A1, “WATER-SOLUBLE, UV-ABSORBING AND/OR FLOURESCENT COMPONENTS WITH VERY HIGH ISOELECTRIC POINTS” (TEXAS A & M UNIVERSITY SYSTEM, priority 2004, published 2015)

Experiment: pKa values for the secondary alcohol OH group

With `OC[C@@H](O)[C@@H](O)[C@H](O)[C@@H](O)CO` [sorbitol] the pKa was 13.6.
`OC[C@H]1O[C@H](O[C@H]2[C@H](O)[C@@H](O)C(O)O[C@@H]2CO)[C@H](O)[C@@H](O)[C@@H]1O` (mixture of isomers) [maltose] showed a pKa of 11.9.
In the case of `OC[C@H]1O[C@@H]2O[C@H]3[C@H](O)[C@@H](O)[C@@H](O[C@H]4[C@H](O)[C@@H](O)[C@@H](O[C@H]5[C@H](O)[C@@H](O)[C@@H](O[C@H]6[C@H](O)[C@@H](O)[C@@H](O[C@H]7[C@H](O)[C@@H](O)[C@@H](O[C@H]1[C@H](O)[C@H]2O)O[C@@H]7CO)O[C@@H]6CO)O[C@@H]5CO)O[C@@H]4CO)O[C@@H]3CO` [α-CD], the “pKa value for the secondary alcohol OH group” value is reported as 12.05.
